From ChEMBL document CHEMBL1201862, “PubChem BioAssay data set” (2004) come the findings set out here.

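Method: 48-hour compound exposure of cells in 96-well plates, five concentrations, linear interpolation of endpoints. GI50: concentration for 50% inhibition of growth.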 Active and inactive are the calls of the source. Cut-off read from the data, not from the text of the source: active = GI50 up to about 1.1 µM and inactive = higher.

Test systems include HCT-116; A498; RPMI-8226; MOLT-4; KM12; SN12C; EKVX; COLO 205; UACC-62; CAKI-1; RXF 393; SF-268; IGROV-1; NCI-H460; CCRF-CEM; HOP-62; LOX IMVI; NCI-H522; ACHN; UACC-257.
Holding throughout (experiment): growth of human tumour cells (NCI), 48 h

As to `CON(C)C(C#N)=C(C#N)C#N`, the GI50 with HCT-116, in the test with A498, in the test on RPMI-8226, in the test with MOLT-4, with KM12 and in the test on SN12C was > 10 µM (inactive) in each case. Moreover, the GI50 in the test with EKVX, in the test on COLO 205, with UACC-62, with CAKI-1, in the test on RXF 393 and in the test on SF-268 was > 10 µM (inactive) each time. Further, the GI50 in the test with IGROV-1, with NCI-H460, in the test with CCRF-CEM, in the test on HOP-62, in the test with LOX IMVI and in the test with NCI-H522 was > 10 µM (inactive) in each case. The GI50 with ACHN is > 10 µM (inactive).
With `O=C(/C=C/c1ccc(OCc2ccccc2)cc1)NCc1ccc(C(=O)NCc2ccccc2)cc1`, the GI50 in the test on HCT-116, in the test with UACC-257, in the test with A498, in the test with RPMI-8226, in the test on MOLT-4 and in the test on KM12 was > 100 µM (inactive) each time. The GI50 was > 100 µM (inactive) in the test with SN12C; > 100 µM (inactive) in the test on EKVX; > 100 µM (inactive) in the test on COLO 205; > 100 µM (inactive) with UACC-62; > 100 µM (inactive) with CAKI-1; 0.687 µM (active) in the test on RXF 393. The GI50 in the test on SF-268, with IGROV-1, with NCI-H460, in the test with CCRF-CEM, in the test on HOP-62 and in the test with LOX IMVI was > 100 µM (inactive) in each case. Further, the GI50 in the test on NCI-H522 and in the test with ACHN was > 100 µM (inactive) throughout.
As to `CC1=CC(C)C(C)N(CC2=NCCN2)c2ccccc21` (stereo not drawn), the GI50 is 40 µM (inactive) in the test with HCT-116; 19.5 µM (inactive) with UACC-257; > 59.8 µM (inactive) in the test on A498; 38.7 µM (inactive) in the test on RPMI-8226; 55 µM (inactive) in the test on MOLT-4; > 68.4 µM (inactive) with KM12. Besides, the GI50 is > 100 µM (inactive) in the test on SN12C; > 100 µM (inactive) in the test on EKVX; 16.9 µM (inactive) in the test with COLO 205; 49.3 µM (inactive) in the test with UACC-62; > 86.9 µM (inactive) in the test with CAKI-1; 27.6 µM (inactive) in the test with RXF 393. For the same compound, the GI50 with SF-268 is 72.8 µM (inactive); with IGROV-1, > 100 µM (inactive); in the test with NCI-H460, 60.8 µM (inactive); in the test with CCRF-CEM, 45.6 µM (inactive); in the test on HOP-62, > 100 µM (inactive); in the test with LOX IMVI, 38.1 µM (inactive). Besides, the GI50 in the test with NCI-H522 is 29.2 µM (inactive); in the test with ACHN, 97.9 µM (inactive).
`Cn1c2ccc([N+](=O)[O-])cc2c(=O)n1Cc1ccccc1F`: the GI50 was 29.1 µM (inactive) in the test on HCT-116; 42.4 µM (inactive) in the test with UACC-257; 37.2 µM (inactive) in the test with A498; > 100 µM (inactive) in the test on RPMI-8226; 45.8 µM (inactive) with MOLT-4; 35.3 µM (inactive) with KM12. Moreover, the GI50 was > 100 µM (inactive) with SN12C; 41.5 µM (inactive) with EKVX; 39.6 µM (inactive) in the test with COLO 205; 48.5 µM (inactive) in the test with UACC-62; 99.3 µM (inactive) with CAKI-1; 61 µM (inactive) in the test with RXF 393. For the same compound, the GI50 was 36.6 µM (inactive) in the test with SF-268; 35.1 µM (inactive) in the test on IGROV-1; 40.1 µM (inactive) in the test with NCI-H460; 46.6 µM (inactive) with CCRF-CEM; 57 µM (inactive) with HOP-62; 31.9 µM (inactive) in the test on LOX IMVI. Also, the GI50 in the test on NCI-H522 is 24.5 µM (inactive); in the test on ACHN it was 53.3 µM (inactive).
For the compound `C#CC(C)(C)OCCCCOc1cc(O)c2c(=O)c3ccccc3n(C)c2c1`, the GI50 was > 100 µM (inactive) with HCT-116; > 100 µM (inactive) in the test on UACC-257; 91 µM (inactive) in the test on A498; > 100 µM (inactive) with RPMI-8226; 97.9 µM (inactive) with KM12; > 100 µM (inactive) in the test with SN12C. Moreover, the GI50 was > 100 µM (inactive) in the test on EKVX; 23.7 µM (inactive) with COLO 205; > 100 µM (inactive) with UACC-62; > 100 µM (inactive) in the test on CAKI-1; > 100 µM (inactive) with RXF 393; > 100 µM (inactive) in the test with SF-268. Also, the GI50 with IGROV-1 is > 100 µM (inactive); in the test with NCI-H460, 57.5 µM (inactive); with CCRF-CEM, > 100 µM (inactive); with HOP-62 it was > 100 µM (inactive); in the test on LOX IMVI, > 100 µM (inactive); with NCI-H522, > 100 µM (inactive). Moreover, the GI50 in the test with ACHN is > 100 µM (inactive).
For the compound `CN(C)C(=O)NCCN1CCCCCc2ccccc21`, the GI50 is > 100 µM (inactive) with HCT-116; 76 µM (inactive) in the test on UACC-257; > 100 µM (inactive) with A498; > 100 µM (inactive) in the test on RPMI-8226; 93.1 µM (inactive) in the test on MOLT-4; > 100 µM (inactive) in the test on KM12. For the same compound, the GI50 in the test with SN12C, with EKVX, with COLO 205, in the test on UACC-62, in the test with CAKI-1 and in the test with RXF 393 was > 100 µM (inactive) in each case. Moreover, the GI50 is > 100 µM (inactive) in the test with SF-268; > 100 µM (inactive) with IGROV-1; > 100 µM (inactive) in the test on NCI-H460; 71.8 µM (inactive) in the test with CCRF-CEM; > 100 µM (inactive) in the test on HOP-62; > 100 µM (inactive) in the test on LOX IMVI. Besides, the GI50 in the test with NCI-H522 and in the test with ACHN was > 100 µM (inactive) throughout.
With `COc1cccc(OCC(=N/NC(=O)c2ccncc2)/N=C/c2ccncc2)c1`, the GI50 in the test on HCT-116, in the test on UACC-257, with A498, in the test on RPMI-8226, in the test on MOLT-4 and with KM12 was > 100 µM (inactive) each time. Moreover, the GI50 with SN12C was > 100 µM (inactive); with EKVX, > 100 µM (inactive); in the test on COLO 205, > 100 µM (inactive); in the test on UACC-62 it was > 100 µM (inactive); in the test with CAKI-1, > 100 µM (inactive); with RXF 393, 52 µM (inactive). Besides, the GI50 in the test with SF-268, in the test on IGROV-1, with NCI-H460, in the test on CCRF-CEM, in the test on HOP-62 and with LOX IMVI was > 100 µM (inactive) throughout. Besides, the GI50 with NCI-H522 and in the test with ACHN was > 100 µM (inactive) throughout.
